Series [1] in a line: Delay of hyaluronic acid degradation by reactive oxygen species in hyaluronic acid solution (viscosity, rheometer). The settings on record: 1.5 wt% hyaluronic acid solution in PBS; peptide 100 ppm, 1000 ppm, 5000 ppm; 500 mM H2O2; 60 and 180 minutes; FIG. 5. Here is the method:
Hyaluronic acid was dissolved in PBS to a concentration of 1.5 wt% and hydrated, and 10 g of this solution was dispensed into each conical tube. Peptide solutions were added to the dispensed hyaluronic acid solutions so that the final peptide concentrations were 0 ppm (no addition), 100 ppm, 1000 ppm, and 5000 ppm, respectively. 2 mL of 500 mM hydrogen peroxide (H2O2) was added to each. Viscosity was measured using a rheometer (single shear stress) by sampling at 0, 30, 60, and 180 minutes to compare the viscosity values according to the peptide concentration. As above, 1.5 wt% hyaluronic acid solutions containing peptides at each concentration were treated with hydrogen peroxide to maintain the degradation reaction by reactive oxygen species for 60 and 180 minutes, thereby degrading hyaluronic acid. After the degradation reaction, the viscosity of each hyaluronic acid solution was measured to confirm the degradation delaying efficacy.

The nature of series [2]: Delay of hyaluronic acid degradation by reactive oxygen species in BDDE-cross-linked filler (Congo Red diffusion, absorbance 500 nm). The settings on record: 37°C, FIG. 6. Here is the method: A 1,4-Butanediol diglycidyl ether (BDDE)-cross-linked hyaluronic acid filler with or without the peptide of Preparation Example 1 was prepared, and Congo Red and hyaluronidase (HAdase) as absorbing dyes were prepared. 20 µL of 1 mM Congo Red was added to each 1.5 mL eppendorf tube, and 100 µL each of the peptide-free filler (control filler) and the peptide-containing filler were added on the absorbing dye. Each was treated with 350 µL of 500 mM hydrogen peroxide (H2O2). Each tube was placed in an incubator at 37°C, and 100 µL of the sample supernatant was collected at time points of 1 hour, 3 hours, 6 hours, 24 hours, 48 hours, and 72 hours and transferred to 96-wells. The absorbance was measured at 500 nm using a microplate reader (SpectraMax iD3, Molecular devices, USA). As above, BDDE-cross-linked hyaluronic acid filler samples with or without the peptide were prepared, and the degree of degradation of hyaluronic acid filler by reactive oxygen species was compared depending on the presence or absence of peptide. The degree of degradation of hyaluronic acid filler was measured by the change in absorbance due to the diffusion of dye. That is, the principle that the flowability of the sample increases when hyaluronic acid is degraded by reactive oxygen species and thus the diffusion of the dye increases was utilized.

Series [3] in a line: pH stability of the peptide (HPLC area). Type of series: physicochemical. The settings on record: 1000 ppm solution, pH 4 to pH 10, HPLC area compared with pH 7; FIG. 7b. Here is the method: The evaluation of pH stability was performed as follows. A diluted solution of the peptide of Preparation Example 1 at a concentration of 1000 ppm was prepared, and the initial pH value of the solution was measured (pH = 3.21). 0.5 M NaOH was added so as to titrate the pH of the solution to pH 4, pH 7, and pH 10, respectively. Each sample was filtered through a 0.22 µm filter. The area values were compared based on pH 7 measured by HPLC.

Series [4] can be described thus: Thermal stability of the peptide (HPLC area). The settings on record: 1000 ppm solution, 50°C vs 25°C, 72 hours, FIG. 7a. Type of series: physicochemical. Here is the method:
The evaluation of thermal stability was performed as follows. A diluted solution of the peptide of Preparation Example 1 at a concentration of 1000 ppm was prepared, dispensed into 50 mL conical tubes, and placed in an incubator at 25°C and 50°C. After 72 hours, 1 mL of each sample was filtered through a 0.22 µm filter. The area values were compared at 25°C based on pH 7 measured by HPLC.

Ends that are not written are not given here. Some results are limits rather than exact numbers.

The results in this text go back to EP4700041A1, “NOVEL PEPTIDE HAVING ACTIVITY OF RETARDING DEGRADATION OF HYALURONIC ACID AND USES THEREOF” (Caregen Co., Ltd., priority 2023, dated 2026).

Turning to “KIWNLEPSRNGT [SEQ ID NO: 1, KIWNLEPSRNGT]”, the “degradation of hyaluronic acid by reactive oxygen species (viscosity)” value in series [1] is on record as “degradation of hyaluronic acid was delayed as the concentration of peptide increased”. The degradation delay improved in series [2] (BDDE-cross-linked hyaluronic acid filler with peptide vs peptide-free control filler, 24 hours after treatment with 500 mM hydrogen peroxide) is given as ≥ 50%. Besides, in series [2] (BDDE-cross-linked hyaluronic acid filler with peptide, treated for 48 hours with 500 mM hydrogen peroxide), the “effect of delaying degradation” value stood at 85%. Also, in series [3], the pH stability entry was “stable”. For the same sequence, in series [4], the thermal stability entry is “stable”.
